# Experiments:
# Experiment in all cases: KINOMEscan competition binding
# Settings in all cases: compound 1.0 µM
# ABL1 (human) = ABL1 (human) (UniProt P00519)
# ACVR2B (human) = ACVR2B (human) (UniProt Q13705)
# BMPR1B (human) = BMPR1B (human) (UniProt O00238)
# BRSK2 (human) = BRSK2 (human) (UniProt Q8IWQ3)
# CAMK1G (human) = CAMK1G (human) (UniProt Q96NX5)
# CDK11B (human) = CDK11B (human) (UniProt P21127)
# CDK15 (human) = CDK15 (human) (UniProt Q96Q40)
# CDK2 (human) = CDK2 (human) (UniProt P24941)
# CDK7 (human) = CDK7 (human) (UniProt P50613)
# CSNK1A1L (human) = CSNK1A1L (human) (UniProt Q8N752)
# EPHA3 (human) = EPHA3 (human) (UniProt P29320)
# EPHA6 (human) = EPHA6 (human) (UniProt Q9UF33)
# FGFR3 (human) = FGFR3 (human) (UniProt P22607)
# [1] = system: FGFR3 (human), P22607 [G697C]
# FGR (human) = FGR (human) (UniProt P09769)
# FLT1 (human) = FLT1 (human) (UniProt P17948)
# [2] = system: FLT3 (human), P36888 [D835H]
# INSRR (human) = INSRR (human) (UniProt P14616)
# [3] = biological target: JAK1 JH2 pseudokinase (human) (UniProt P23458)
# [4] = system: KIT (human), P10721 [L576P]
# MAP2K6 (human) = MAP2K6 (human) (UniProt P52564)
# MAP4K4 (human) = MAP4K4 (human) (UniProt O95819)
# MAPK15 (human) = MAPK15 (human) (UniProt Q8TD08)
# MKNK2 (human) = MKNK2 (human) (UniProt Q9HBH9)
# MYLK2 (human) = MYLK2 (human) (UniProt Q9H1R3)
# NEK1 (human) = NEK1 (human) (UniProt Q96PY6)
# OXSR1 (human) = OXSR1 (human) (UniProt O95747)
# PAK7 (human) = PAK7 (human) (UniProt Q9P286)
# PRKD3 (human) = PRKD3 (human) (UniProt O94806)
# PRKG2 (human) = PRKG2 (human) (UniProt Q13237)
# PTK2 (human) = PTK2 (human) (UniProt Q05397)
# [5] = system: RET (human), P07949 [M918T]
# RPS6KA2 KD2 (human) = RPS6KA2 KD2 (human) (UniProt Q15349)
# SIK3 (human) = SIK3 (human) (UniProt Q9Y2K2)
# STK11 (human) = STK11 (human) (UniProt Q15831)
# STK36 (human) = STK36 (human) (UniProt Q9NRP7)
# STK38L (human) = STK38L (human) (UniProt Q9Y2H1)
# TLK2 (human) = TLK2 (human) (UniProt Q86UE8)
# TNNI3K (human) = TNNI3K (human) (UniProt Q59H18)
# TXK (human) = TXK (human) (UniProt P42681)
# Sequence of INSRR (human) (P14616 whole entry, looked up): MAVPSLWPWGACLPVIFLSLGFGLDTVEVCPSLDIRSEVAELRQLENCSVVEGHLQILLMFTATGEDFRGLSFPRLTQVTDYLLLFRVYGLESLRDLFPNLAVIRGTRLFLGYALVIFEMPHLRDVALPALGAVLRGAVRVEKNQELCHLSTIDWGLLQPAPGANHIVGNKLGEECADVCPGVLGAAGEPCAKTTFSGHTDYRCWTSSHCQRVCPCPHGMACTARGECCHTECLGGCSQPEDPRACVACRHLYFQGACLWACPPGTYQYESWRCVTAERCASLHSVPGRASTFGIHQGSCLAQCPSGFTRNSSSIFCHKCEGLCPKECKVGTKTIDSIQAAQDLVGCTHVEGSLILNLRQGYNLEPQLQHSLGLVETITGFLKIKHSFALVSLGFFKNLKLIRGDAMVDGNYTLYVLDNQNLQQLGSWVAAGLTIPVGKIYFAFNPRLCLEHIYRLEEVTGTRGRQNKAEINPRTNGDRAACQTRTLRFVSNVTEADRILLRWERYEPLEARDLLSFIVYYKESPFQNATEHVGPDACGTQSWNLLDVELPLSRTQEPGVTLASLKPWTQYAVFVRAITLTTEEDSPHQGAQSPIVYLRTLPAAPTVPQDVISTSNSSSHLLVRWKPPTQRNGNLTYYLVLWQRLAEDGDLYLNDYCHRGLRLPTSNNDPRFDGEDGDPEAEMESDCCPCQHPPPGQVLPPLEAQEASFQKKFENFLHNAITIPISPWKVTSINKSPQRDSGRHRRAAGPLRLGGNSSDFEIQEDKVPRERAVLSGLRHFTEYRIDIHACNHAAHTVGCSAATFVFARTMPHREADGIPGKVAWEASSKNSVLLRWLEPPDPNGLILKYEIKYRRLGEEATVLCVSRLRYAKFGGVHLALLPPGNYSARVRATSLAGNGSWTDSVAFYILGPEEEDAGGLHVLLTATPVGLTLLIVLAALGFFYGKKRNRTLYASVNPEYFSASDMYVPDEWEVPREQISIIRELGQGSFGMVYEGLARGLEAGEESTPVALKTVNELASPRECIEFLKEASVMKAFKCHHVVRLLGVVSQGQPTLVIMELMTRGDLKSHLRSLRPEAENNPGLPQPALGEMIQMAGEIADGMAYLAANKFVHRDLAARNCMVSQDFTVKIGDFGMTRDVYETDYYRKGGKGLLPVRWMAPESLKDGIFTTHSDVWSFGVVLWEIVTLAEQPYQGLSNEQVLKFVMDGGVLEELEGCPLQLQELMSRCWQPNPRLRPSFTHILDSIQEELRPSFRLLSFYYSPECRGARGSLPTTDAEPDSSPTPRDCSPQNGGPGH
# Sequence of PRKD3 (human) (O94806 whole entry, looked up): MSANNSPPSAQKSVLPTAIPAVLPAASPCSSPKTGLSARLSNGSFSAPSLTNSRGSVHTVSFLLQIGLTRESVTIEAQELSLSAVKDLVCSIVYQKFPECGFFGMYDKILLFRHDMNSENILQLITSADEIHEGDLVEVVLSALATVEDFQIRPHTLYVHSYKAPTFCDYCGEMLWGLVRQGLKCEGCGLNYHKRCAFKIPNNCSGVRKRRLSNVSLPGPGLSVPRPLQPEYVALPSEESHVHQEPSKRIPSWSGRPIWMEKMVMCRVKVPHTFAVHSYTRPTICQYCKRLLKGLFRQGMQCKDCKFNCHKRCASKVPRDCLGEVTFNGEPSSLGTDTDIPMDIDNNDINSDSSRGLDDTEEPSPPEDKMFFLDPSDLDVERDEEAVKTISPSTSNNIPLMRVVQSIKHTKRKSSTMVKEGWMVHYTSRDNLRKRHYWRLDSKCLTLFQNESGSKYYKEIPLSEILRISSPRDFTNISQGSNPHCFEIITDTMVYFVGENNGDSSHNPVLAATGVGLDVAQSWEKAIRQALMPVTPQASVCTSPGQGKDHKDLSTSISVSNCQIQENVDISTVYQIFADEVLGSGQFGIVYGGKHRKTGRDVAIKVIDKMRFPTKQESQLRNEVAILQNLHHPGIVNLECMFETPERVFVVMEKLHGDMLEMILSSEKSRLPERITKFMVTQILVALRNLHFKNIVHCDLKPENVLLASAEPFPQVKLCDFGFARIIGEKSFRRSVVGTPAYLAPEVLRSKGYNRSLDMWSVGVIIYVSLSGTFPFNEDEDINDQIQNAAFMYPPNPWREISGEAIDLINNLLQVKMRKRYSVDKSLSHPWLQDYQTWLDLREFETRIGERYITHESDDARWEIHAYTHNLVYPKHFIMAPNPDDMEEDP
# Sequence of CSNK1A1L (human) (Q8N752 whole entry, looked up): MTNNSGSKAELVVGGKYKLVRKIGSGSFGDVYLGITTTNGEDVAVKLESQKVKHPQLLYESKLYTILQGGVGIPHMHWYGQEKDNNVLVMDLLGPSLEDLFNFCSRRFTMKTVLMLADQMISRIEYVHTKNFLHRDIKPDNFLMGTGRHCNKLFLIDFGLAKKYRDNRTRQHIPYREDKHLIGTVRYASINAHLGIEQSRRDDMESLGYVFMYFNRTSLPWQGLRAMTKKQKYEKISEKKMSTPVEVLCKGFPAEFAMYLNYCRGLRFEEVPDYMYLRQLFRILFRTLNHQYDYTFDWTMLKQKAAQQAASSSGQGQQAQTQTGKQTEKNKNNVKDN
# Sequence of EPHA6 (human) (Q9UF33 whole entry, looked up): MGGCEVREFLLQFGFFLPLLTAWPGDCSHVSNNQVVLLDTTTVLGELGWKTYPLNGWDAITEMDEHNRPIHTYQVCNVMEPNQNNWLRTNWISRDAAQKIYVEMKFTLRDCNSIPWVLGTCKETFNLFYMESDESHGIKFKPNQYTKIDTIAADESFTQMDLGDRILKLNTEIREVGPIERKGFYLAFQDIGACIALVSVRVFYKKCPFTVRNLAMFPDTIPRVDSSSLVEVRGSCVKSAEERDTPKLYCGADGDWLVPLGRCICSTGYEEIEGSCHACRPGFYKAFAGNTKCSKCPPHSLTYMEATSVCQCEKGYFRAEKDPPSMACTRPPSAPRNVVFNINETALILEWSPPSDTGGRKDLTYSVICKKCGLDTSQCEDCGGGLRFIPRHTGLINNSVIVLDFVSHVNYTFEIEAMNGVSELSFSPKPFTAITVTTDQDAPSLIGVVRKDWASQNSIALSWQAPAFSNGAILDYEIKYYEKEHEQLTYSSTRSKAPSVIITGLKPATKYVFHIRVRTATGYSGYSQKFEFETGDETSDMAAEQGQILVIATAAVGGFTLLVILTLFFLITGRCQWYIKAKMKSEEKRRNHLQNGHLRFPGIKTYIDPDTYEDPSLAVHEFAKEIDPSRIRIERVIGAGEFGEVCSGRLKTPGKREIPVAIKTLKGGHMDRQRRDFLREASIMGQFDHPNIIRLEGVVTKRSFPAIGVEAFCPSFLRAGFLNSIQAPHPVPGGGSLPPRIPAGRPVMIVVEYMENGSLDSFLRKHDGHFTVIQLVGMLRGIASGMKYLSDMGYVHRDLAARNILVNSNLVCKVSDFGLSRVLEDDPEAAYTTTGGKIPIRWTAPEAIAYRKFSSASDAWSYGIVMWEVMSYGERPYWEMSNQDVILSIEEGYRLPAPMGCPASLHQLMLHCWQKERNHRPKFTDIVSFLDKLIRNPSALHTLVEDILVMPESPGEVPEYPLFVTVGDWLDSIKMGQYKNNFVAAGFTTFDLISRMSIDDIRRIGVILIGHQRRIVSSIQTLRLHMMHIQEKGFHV
# Sequence of PTK2 (human) (Q05397 whole entry, looked up): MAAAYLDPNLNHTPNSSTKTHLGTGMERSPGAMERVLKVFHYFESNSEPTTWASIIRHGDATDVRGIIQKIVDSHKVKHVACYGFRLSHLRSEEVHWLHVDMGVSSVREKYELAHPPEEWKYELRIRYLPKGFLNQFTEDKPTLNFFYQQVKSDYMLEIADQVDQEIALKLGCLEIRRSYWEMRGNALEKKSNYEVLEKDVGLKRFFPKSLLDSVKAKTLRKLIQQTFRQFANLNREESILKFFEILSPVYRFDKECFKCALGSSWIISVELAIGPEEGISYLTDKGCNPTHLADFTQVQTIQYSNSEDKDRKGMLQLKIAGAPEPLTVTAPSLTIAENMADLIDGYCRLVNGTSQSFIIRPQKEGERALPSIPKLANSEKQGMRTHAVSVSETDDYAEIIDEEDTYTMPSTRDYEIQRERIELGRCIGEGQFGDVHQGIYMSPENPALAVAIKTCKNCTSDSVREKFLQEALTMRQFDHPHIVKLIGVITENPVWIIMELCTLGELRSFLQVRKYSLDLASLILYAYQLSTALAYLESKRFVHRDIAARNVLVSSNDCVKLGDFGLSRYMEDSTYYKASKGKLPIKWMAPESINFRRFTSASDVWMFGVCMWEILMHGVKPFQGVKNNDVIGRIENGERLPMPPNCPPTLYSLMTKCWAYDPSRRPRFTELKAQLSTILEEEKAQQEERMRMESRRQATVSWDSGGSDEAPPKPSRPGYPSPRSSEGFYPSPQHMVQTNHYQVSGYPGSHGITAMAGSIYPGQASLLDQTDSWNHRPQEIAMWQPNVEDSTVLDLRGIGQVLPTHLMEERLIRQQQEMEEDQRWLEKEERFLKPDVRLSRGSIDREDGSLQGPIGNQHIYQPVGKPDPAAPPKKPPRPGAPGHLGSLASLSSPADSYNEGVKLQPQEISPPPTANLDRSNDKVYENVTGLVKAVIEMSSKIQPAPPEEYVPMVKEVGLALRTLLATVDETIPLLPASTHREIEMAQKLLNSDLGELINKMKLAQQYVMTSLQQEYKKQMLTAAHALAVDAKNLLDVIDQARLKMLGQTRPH
# Sequence of MAP2K6 (human) (P52564 whole entry, looked up): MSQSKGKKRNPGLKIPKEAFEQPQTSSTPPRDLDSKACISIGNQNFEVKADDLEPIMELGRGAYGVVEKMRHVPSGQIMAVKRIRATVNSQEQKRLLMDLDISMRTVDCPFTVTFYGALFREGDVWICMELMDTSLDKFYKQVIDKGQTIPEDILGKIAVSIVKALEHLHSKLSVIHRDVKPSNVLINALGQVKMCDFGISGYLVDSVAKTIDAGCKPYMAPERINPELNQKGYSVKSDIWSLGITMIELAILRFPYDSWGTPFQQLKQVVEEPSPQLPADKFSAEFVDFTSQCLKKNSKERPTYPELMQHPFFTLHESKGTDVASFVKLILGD
smiles,measurement,setting,value
Nc1cc(C(F)(F)F)c(-c2cc(N3CCOCC3)nc(N3CCOCC3)n2)cn1,inhibition of binding,ABL1 (human),0%
same,inhibition of binding,ACVR2B (human),0%
same,inhibition of binding,BMPR1B (human),0%
same,inhibition of binding,BRSK2 (human),0%
same,inhibition of binding,CAMK1G (human),0%
same,inhibition of binding,CDK11B (human),10%
same,inhibition of binding,CDK15 (human),0%
same,inhibition of binding,CDK2 (human),30%
same,inhibition of binding,CDK7 (human),0%
same,inhibition of binding,CSNK1A1L (human),0%
same,inhibition of binding,EPHA3 (human),0%
same,inhibition of binding,EPHA6 (human),3%
same,inhibition of binding,FGFR3 (human),7%
same,inhibition of binding,[1],0%
same,inhibition of binding,FGR (human),0%
same,inhibition of binding,FLT1 (human),0%
same,inhibition of binding,[2],2%
same,inhibition of binding,INSRR (human),0%
same,inhibition of binding,[3],0%
same,inhibition of binding,[4],0%
same,inhibition of binding,MAP2K6 (human),0%
same,inhibition of binding,MAP4K4 (human),9%
same,inhibition of binding,MAPK15 (human),2%
same,inhibition of binding,MKNK2 (human),5%
same,inhibition of binding,MYLK2 (human),5%
same,inhibition of binding,NEK1 (human),15%
same,inhibition of binding,OXSR1 (human),17%
same,inhibition of binding,PAK7 (human),0%
same,inhibition of binding,PRKD3 (human),11%
same,inhibition of binding,PRKG2 (human),0%
same,inhibition of binding,PTK2 (human),21%
same,inhibition of binding,[5],13%
same,inhibition of binding,RPS6KA2 KD2 (human),16%
same,inhibition of binding,SIK3 (human),0%
same,inhibition of binding,STK11 (human),0%
same,inhibition of binding,STK36 (human),0%
same,inhibition of binding,STK38L (human),3%
same,inhibition of binding,TLK2 (human),13%
same,inhibition of binding,TNNI3K (human),0%
same,inhibition of binding,TXK (human),0%

# Reference: the kinase profiling compilation of Christmann-Franck et al. (2016)
